Measured values: paper PMC7567334 (Environmental Health Perspectives, 2020)
pEC50, pIC50: −log10 of the molar value. “And” between values parts separate entries of the source, which are not always exact repeats. Identical values can stand only once. Like-named read-outs stand apart in the source and are kept apart here.

Columns and labels:
Androgen receptor [1] = settings: ref Rostkowski et al. 2011, cited from earlier work
hERα-HeLa-9903 cells = assay: Cell viability (resazurin) in hERα-HeLa-9903 cells; settings: hERα-HeLa-9903, ERα agonist dose-response
stickleback AR = tested on: stickleback AR; design: method as in Lange et al. 2015; settings: at 10 μM; ref Lange et al. 2015; cited from earlier work
AR = target: T1, AR (Rattus norvegicus, UniProt P15207); assay: PolarScreen AR Competitor binding affinity assay
T1 construct: purchased Invitrogen
T1 sequence (P15207 651-902 limits assumed): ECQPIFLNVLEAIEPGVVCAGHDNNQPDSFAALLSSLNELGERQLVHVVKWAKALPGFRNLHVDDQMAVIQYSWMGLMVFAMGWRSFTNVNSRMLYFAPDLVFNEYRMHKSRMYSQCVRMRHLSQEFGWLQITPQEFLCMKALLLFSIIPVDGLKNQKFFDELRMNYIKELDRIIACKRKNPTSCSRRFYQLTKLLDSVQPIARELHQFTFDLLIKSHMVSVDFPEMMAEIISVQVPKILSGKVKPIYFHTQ

firefly luciferase = target: T2, firefly luciferase (Photinus pyralis, UniProt P08659); assay: Luciferase inhibition assay in GH3.TRE-Luc cell lysates; assay type: biochemical; settings: cell lysate; for inhibition at 50 µM: read-out: inhibition of firefly luciferase luminescence signal
T2 construct: Only implied by 'CP' in the vector name, from my own knowledge; expressed in transfected cells; host or cells: GH3.TRE-Luc cells induced with 0.25 nM T3, lysate
Description: Serial dilutions for each treatment were prepared in the cell lysate and incubated at room temperature for 30 min.

GR [2] = target: T3, GR (Homo sapiens, UniProt P04150); assay: PolarScreen GR Competitor binding affinity assay; design: purchased Invitrogen; settings: for binding affinity assay on isolated GR, result: in words, tested up to 10 μM
T3 sequence (P04150 1-777): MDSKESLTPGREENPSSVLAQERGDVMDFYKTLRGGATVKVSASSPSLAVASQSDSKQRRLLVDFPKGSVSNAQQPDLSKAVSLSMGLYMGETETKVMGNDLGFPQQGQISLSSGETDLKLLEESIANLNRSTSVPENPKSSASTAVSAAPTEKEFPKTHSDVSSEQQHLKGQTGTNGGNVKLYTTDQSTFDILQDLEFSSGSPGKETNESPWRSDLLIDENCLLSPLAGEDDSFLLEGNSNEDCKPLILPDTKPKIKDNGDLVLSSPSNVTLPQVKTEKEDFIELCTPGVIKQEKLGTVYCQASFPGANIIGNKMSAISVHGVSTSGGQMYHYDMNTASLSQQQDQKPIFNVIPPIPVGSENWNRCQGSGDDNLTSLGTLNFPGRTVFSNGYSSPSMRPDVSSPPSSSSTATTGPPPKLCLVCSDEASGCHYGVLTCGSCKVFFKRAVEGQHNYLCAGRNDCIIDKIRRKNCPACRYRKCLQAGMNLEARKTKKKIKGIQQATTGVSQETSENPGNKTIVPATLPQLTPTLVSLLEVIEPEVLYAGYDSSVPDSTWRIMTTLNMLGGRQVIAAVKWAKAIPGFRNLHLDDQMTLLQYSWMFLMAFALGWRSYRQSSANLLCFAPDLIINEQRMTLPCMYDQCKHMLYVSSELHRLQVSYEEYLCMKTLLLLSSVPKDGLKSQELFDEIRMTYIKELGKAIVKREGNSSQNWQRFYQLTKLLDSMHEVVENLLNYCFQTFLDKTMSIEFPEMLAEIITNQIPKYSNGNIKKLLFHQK

TRα and TRβ [3] = assay: GH3.TRE-Luc TR reporter assay, antagonist setup (0.25 nM T3); assay type: cell-based, rat
GR [4] = target: T3, GR; assay: MDA-kb2 GR reporter assay, antagonist setup (500 nM HC); assay type: cell-based; design: constitutively expressed high levels of functional GR and AR; host or cells: MDA-kb2
human (h)AR = target: T4, human (h)AR (Homo sapiens, UniProt P10275); assay: AR-EcoScreen hAR transcriptional activation assay, antagonist setup (500 pM DHT); assay type: cell-based
T4 sequence (P10275 1-920): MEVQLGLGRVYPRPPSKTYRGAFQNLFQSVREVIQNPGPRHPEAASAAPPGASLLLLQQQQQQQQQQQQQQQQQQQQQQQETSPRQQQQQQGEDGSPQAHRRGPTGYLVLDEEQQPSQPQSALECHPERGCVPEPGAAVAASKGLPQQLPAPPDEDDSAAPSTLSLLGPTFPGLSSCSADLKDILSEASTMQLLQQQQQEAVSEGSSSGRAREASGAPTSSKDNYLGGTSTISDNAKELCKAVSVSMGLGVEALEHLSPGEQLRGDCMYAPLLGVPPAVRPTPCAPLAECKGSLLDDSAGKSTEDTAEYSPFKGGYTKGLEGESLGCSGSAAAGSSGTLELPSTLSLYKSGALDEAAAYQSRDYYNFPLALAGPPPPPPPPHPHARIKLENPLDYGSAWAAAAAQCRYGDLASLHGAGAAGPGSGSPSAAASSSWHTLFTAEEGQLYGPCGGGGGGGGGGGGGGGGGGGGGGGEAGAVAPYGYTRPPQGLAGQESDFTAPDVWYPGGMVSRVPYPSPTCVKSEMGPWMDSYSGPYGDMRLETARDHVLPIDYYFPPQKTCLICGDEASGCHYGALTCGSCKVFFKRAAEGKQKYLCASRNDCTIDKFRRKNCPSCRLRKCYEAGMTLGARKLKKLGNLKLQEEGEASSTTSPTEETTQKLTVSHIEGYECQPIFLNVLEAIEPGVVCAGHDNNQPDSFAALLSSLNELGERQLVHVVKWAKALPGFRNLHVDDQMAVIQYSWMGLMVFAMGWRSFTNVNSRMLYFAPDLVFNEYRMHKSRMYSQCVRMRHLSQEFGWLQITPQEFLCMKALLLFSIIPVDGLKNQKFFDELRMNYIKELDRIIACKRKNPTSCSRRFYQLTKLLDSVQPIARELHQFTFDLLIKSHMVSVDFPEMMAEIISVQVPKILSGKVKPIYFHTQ

Androgen receptor [5] = settings: ref Rostkowski et al. 2011, cited from earlier work; remark: listed apart in the source
AroB transcription = settings: 1 nM E2 alone; zebrafish embryos; ref Chung et al. 2011; cited from earlier work
[6] = ref Sandborgh-Englund et al. 2006, cited from earlier work
Glucocorticoid receptor = settings: MDA-kb2 at 5 μM; ref Kolšek et al. 2014a; cited from earlier work
TRα and TRβ [7] = assay: GH3.TRE-Luc TR reporter assay, agonist setup; assay type: cell-based, rat; settings: vs 0.1% DMSO
Thyroid receptor = settings: ZFL cell line; ref Zhou et al. 2017; cited from earlier work
GR [8] = target: T3, GR; assay: MDA-kb2 GR reporter assay, agonist setup (with FLU); assay type: cell-based; design: constitutively expressed high levels of functional GR and AR; host or cells: MDA-kb2; settings: 10 μM; vs 0.1% DMSO with 5 μM FLU
Estrogen receptor-α = settings: YES/YAS tests; ref Westlund and Yargeau 2017; cited from earlier work
human (h) ERα = target: T5, human (h) ERα (Homo sapiens, UniProt P03372); assay: hERα-HeLa-9903 transactivation assay, agonist setup; assay type: cell-based; design: host or cells: hERα-HeLa-9903 (HeLa derived); settings: for higher ERα RTA than vehicle control: vs 0.1% DMSO
T5 sequence (P03372 1-595): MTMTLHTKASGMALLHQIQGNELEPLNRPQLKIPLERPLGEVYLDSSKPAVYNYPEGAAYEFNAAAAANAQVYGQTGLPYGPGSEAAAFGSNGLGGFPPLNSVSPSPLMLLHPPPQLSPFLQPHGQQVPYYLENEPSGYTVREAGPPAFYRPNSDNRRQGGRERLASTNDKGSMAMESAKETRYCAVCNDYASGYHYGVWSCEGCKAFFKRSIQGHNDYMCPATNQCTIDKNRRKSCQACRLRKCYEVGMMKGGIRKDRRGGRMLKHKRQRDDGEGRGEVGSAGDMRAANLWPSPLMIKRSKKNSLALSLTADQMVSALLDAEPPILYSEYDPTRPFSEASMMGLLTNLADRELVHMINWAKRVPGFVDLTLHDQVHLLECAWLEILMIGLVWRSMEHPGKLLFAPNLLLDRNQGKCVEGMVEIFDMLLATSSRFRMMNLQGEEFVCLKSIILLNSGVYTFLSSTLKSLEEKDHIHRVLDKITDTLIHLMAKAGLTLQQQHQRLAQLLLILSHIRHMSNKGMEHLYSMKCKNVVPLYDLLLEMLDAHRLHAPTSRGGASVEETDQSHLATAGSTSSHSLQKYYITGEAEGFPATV

AR-EcoScreen cells = assay: Cell viability (resazurin) in AR-EcoScreen cells; settings: agonist assay
[9] = 0.25 nM T3; read-out: TR antagonist IC50

T2 sequence (P08659 whole entry): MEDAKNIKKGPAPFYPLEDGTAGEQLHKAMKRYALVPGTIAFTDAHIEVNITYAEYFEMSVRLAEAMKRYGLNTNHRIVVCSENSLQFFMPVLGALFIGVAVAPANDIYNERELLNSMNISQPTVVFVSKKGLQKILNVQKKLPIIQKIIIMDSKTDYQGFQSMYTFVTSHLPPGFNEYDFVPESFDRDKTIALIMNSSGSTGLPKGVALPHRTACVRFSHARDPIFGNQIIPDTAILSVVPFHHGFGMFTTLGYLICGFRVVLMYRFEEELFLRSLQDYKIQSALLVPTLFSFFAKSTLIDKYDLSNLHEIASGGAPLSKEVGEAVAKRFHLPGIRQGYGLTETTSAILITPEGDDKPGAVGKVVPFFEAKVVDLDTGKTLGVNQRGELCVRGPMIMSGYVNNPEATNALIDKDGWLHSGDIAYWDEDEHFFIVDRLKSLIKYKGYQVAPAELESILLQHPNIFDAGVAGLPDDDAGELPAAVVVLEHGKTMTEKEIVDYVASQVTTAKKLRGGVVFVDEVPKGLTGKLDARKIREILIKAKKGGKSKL

Oc1ccc(Cl)cc1Cc1ccccc1 [Chlorophene, 2-Benzyl-4-chlorophenol]
pIC50 (Androgen receptor [1]; antiandrogenic, read-out: anti-YAS IC50): 6.27 | effect on AR, yeast based assay (Androgen receptor [1]): Antagonist ([Rostkowski et al. 2011]) | highest tested concentration as limited by precipitation and cytotoxicity (hERα-HeLa-9903 cells): 50 µM | effect on stickleback AR (stickleback AR): Antagonist at 10μM in a stickleback AR reporter assay ([Lange et al. 2015]) | pEC50 (AR): 5.67 | binding affinity assay on isolated AR, result (AR; in words, tested up to 10 μM): positive | inhibition at 50 µM (firefly luciferase): ~12% | binding affinity assay on isolated GR, result (GR [2]): positive | pEC50 (GR [2]; read-out: binding to isolated GR, EC50): 4.98 | TR antagonist activity, call (TRα and TRβ [3]; GH3.TRE-Luc): Antagonist | concentration with TR antagonist activity (TRα and TRβ [3]; GH3.TRE-Luc): 10 µM | GR activity in MDA-kb2 cell line, call (GR [4]; 10 μM): Negative | lower AR RTA than spike-in control (human (h)AR; 10 μM, vs 0.1% DMSO with 500 pM DHT): > 90% | pIC50 (human (h)AR; AR antagonist IC50, AR-EcoScreen, 500 pM DHT): 5.63 and 5.62 | AR antagonist activity, call (human (h)AR; AR-EcoScreen): Antagonist | pIC50 (Androgen receptor [5]; antiandrogenic, read-out: AR-CALUX IC50): 6.10 | effect on AR in AR-CALUX assay (Androgen receptor [5]): Antagonist in AR-CALUX assay ([Rostkowski et al. 2011])

CC(C)(c1ccc(O)cc1)c1ccc(O)cc1 [BPA, bisphenol A, reference compound]
pIC50 (TRα and TRβ [3]; read-out: TR antagonist IC50; 0.25 nM T3): 4.38

C[C@]12CC[C@@H]3c4ccc(O)cc4CC[C@H]3[C@@H]1CC[C@@H]2O [E2, 17β-estradiol, reference compound]
increase in AroB transcription (AroB transcription): 8 fold

Oc1cc(Cl)ccc1Oc1ccc(Cl)cc1Cl [Triclosan, 5-Chloro-2-(2,4-dichlorophenoxy) phenol]
effect on stickleback AR (stickleback AR): Antagonist at 10μM in stickleback AR reporter assay ([Lange et al. 2015]) | inhibition at 50 µM (firefly luciferase): ~12% | peak plasma concentration ([6]; 10 healthy volunteers, single dose of mouthwash): 0.5 to 1.2 µM | preexperiment median plasma baseline concentration ([6]; 10 healthy volunteers): 5.5 nM | time of plasma peak after exposure [6]: up to 3 h | pEC50 (GR [2]): 4.56 | binding affinity assay on isolated GR, result (GR [2]): positive | pIC50 (TRα and TRβ [3]; [9]): 5.44 | lower TR RTA than spike-in control (TRα and TRβ [3]; 5 μM; vs 0.1% DMSO with 0.25 nM T3): 71.9% | TR antagonist activity, call (TRα and TRβ [3]; GH3.TRE-Luc): Antagonist | concentration with TR antagonist activity (TRα and TRβ [3]; GH3.TRE-Luc): 5 µM | lower GR RTA than spike-in control (GR [4]; 10 μM, vs 0.1% DMSO with 500 nM HC): 53.2% | GR antagonist activity, call (GR [4]; MDA-kb2): Antagonist | effect on GR (Glucocorticoid receptor): No effect in MDA-kb2 at 5μM ([Kolšek et al. 2014a]) | baseline TR-mediated transcriptional activity lower than vehicle control (agonist setup) (TRα and TRβ [7]; 10 μM): > 50% | effect on TR (Thyroid receptor): No effect in ZFL cell line ([Zhou et al. 2017]) | lower GR RTA than vehicle control (agonist assay) (GR [8]): 53.6%

CC(C)(C)C(=O)C(Oc1ccc(Cl)cc1)n1ccnc1 (stereo not drawn) [Climbazole, 1-(4-Chlorophenoxy)-1-(imidazol-1-yl)-3,3-dimethylbutan-2-one]
effect on ER, yeast based assay (Estrogen receptor-α): No effect ([Westlund and Yargeau 2017]) | higher ERα RTA than vehicle control (human (h) ERα; 10 μM): > 30.0% and 36.6% | higher ERα RTA than vehicle control (human (h) ERα; 100 μM): 94% | ERα agonist activity, call (human (h) ERα; hERα-HeLa-9903): Agonist | concentration with ERα agonist activity (human (h) ERα; hERα-HeLa-9903): 10 to 100 µM | inhibition at 50 µM (firefly luciferase): ~12% | TR antagonist activity, call (TRα and TRβ [3]; GH3.TRE-Luc): Antagonist | concentration with TR antagonist activity (TRα and TRβ [3]; GH3.TRE-Luc): 10 µM

Oc1c(Br)cc(Cl)cc1Cc1cc(Cl)cc(Br)c1O [Bromochlorophene, 2,2’-methylenebis(6-bromo-4-chlorophenol)]
inhibition of firefly luciferase luminescence signal (firefly luciferase; 50 μM): 26.1% | pIC50 (TRα and TRβ [3]; [9]): 6.30 and 6.29 | lower TR RTA than spike-in control (TRα and TRβ [3]; 10 μM; vs 0.1% DMSO with 0.25 nM T3): 92.9% | TR antagonist activity, call (TRα and TRβ [3]; GH3.TRE-Luc): Antagonist | baseline TR-mediated transcriptional activity lower than vehicle control (agonist setup) (TRα and TRβ [7]; 1 μM): > 50% | baseline TR-mediated transcriptional activity lower than vehicle control (agonist setup) (TRα and TRβ [7]; 10 μM): > 50% | highest noncytotoxic concentration (AR-EcoScreen cells): 2.5 µM
